In patent publication US20240025884A1 (Dong-A ST Co., Ltd., priority 2022, published 2024):

Target: GCN2 (Homo sapiens (Human), UniProt Q9P2K8)
Experiment: GCN2 Biochemical Assay (TR-FRET, GFP-eIF2S1 substrate phosphorylation)
Settings: read-out: IC50 (GCN2 Inhibitory Activity)
Summary of the method: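 In-house GCN2 (1.6 nM 2× stock) phosphorylates GFP-eIF2S1 (50 nM 2× stock) with ATP (0.2 mM 2× stock) and tRNA, pH 7.5, 70 min at room temperature; 10-point 3.16-fold compound series. TR-FRET detection with Tb-anti-phospho antibody, 2–3 h, Ex 340/Em 490/520 nm; artifact plate spiked with phospho-substrate.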

Chain of GCN2 (Q9P2K8 whole entry): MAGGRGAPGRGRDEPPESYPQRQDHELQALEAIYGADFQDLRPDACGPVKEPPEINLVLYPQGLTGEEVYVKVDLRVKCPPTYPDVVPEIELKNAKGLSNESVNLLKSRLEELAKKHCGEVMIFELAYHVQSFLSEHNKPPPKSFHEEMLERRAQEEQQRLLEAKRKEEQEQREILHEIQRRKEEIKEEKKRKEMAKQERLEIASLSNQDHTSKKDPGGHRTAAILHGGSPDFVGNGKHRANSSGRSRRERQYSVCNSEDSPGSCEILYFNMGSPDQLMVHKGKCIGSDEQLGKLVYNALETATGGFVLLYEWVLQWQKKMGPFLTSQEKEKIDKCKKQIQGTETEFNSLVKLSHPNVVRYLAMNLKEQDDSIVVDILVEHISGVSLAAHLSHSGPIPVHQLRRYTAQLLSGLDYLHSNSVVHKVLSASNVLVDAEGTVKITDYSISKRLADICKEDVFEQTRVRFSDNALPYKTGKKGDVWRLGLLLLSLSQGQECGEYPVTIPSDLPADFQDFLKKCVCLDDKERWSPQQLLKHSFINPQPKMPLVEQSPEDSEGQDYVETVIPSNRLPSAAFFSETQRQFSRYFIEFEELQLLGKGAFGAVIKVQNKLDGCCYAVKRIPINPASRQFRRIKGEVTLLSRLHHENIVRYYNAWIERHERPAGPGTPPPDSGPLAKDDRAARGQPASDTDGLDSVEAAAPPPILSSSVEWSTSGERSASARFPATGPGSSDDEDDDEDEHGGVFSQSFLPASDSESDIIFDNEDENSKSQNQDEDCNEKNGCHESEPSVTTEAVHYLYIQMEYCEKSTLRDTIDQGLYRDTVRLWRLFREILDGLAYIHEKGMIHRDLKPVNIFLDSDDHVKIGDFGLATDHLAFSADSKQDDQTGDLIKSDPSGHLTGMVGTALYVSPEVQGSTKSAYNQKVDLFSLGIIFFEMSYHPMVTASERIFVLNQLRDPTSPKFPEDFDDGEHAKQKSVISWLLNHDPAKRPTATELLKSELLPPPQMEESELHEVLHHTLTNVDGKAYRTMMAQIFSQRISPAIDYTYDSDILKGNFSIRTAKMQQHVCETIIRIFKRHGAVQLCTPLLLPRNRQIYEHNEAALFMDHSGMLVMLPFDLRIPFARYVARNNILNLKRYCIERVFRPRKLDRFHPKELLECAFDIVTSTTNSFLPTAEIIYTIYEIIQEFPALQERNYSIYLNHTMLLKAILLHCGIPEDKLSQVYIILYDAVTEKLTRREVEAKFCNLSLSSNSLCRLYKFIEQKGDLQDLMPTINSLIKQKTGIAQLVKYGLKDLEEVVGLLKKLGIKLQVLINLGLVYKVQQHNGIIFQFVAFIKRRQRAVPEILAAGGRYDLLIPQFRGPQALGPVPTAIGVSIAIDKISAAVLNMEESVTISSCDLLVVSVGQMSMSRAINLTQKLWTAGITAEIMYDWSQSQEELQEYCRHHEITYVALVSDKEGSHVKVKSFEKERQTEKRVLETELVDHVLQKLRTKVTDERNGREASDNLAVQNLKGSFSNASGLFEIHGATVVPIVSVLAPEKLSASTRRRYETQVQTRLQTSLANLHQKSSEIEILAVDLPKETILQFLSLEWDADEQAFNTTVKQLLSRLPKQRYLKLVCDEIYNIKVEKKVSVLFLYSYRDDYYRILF

Structure (SMILES)	IC50 [nM]
CCCNc1cncc(O[C@H]2CCN(CC(=O)Nc3cccc4c(-c5nc(Nc6cc(C)n(C)n6)ncc5C)c[nH]c34)C2)n1 [Example 245, (S)-N-(3-(2-((1,5-dimethyl-1H-pyrazol-3-yl)amino)-5-methylpyrimidin-4-yl)-1H-indol-7-yl)-2-(3-((6-(propylamino)pyrazin-2-yl)oxy)pyrrolidin-1-yl)acetamide]	10 to 100
Cc1cnc(Nc2cc(C)n(C)n2)nc1-c1c[nH]c2c(NC(=O)CN3CC[C@H](Oc4cncc(NCCO)n4)C3)cccc12 [Example 246, (S)-N-(3-(2-((1,5-dimethyl-1H-pyrazol-3-yl)amino)-5-methylpyrimidin-4-yl)-1H-indol-7-yl)-2-(3-((6-((2-hydroxyethyl)amino)pyrazin-2-yl)oxy)pyrrolidin-1-yl)acetamide]	10 to 100
Cc1cnc(Nc2cc(C)n(C)n2)nc1-c1c[nH]c2c(NC(=O)CN3CC[C@H](Oc4cncc(NCCN(C)C)n4)C3)cccc12 [Example 247, (S)-N-(3-(2-((1,5-dimethyl-1H-pyrazol-3-yl)amino)-5-methylpyrimidin-4-yl)-1H-indol-7-yl)-2-(3-((6-((2-(dimethylamino)ethyl)amino)pyrazin-2-yl)oxy)pyrrolidin-1-yl)acetamide]	< 10
Cc1cnc(Nc2cc(C)n(C)n2)nc1-c1c[nH]c2c(NC(=O)CN3CC[C@H](Oc4cc(-c5ccccc5)ncn4)C3)cccc12 [Example 248, (S)-N-(3-(2-((1,5-dimethyl-1H-pyrazol-3-yl)amino)-5-methylpyrimidin-4-yl)-1H-indol-7-yl)-2-(3-((6-phenylpyrimidin-4-yl)oxy)pyrrolidin-1-yl)acetamide]	10 to 100
Cc1cnc(Nc2cc(C)n(C)n2)nc1-c1c[nH]c2c(NC(=O)CN3CC[C@H](Oc4cc(-c5cnn(C)c5)ncn4)C3)cccc12 [Example 249, (S)-N-(3-(2-((1,5-dimethyl-1H-pyrazol-3-yl)amino)-5-methylpyrimidin-4-yl)-1H-indol-7-yl)-2-(3-((6-(1-methyl-1H-pyrazol-4-yl)pyrimidin-4-yl)oxy)pyrrolidin-1-yl)acetamide]	< 10
Cc1cnc(Nc2cc(C)n(C)n2)nc1-c1c[nH]c2c(NC(=O)CN3CC[C@H](Oc4cc(C5=CCC(C)(C)CC5)ncn4)C3)cccc12 [Example 250]	100 to 1000
Cc1cnc(Nc2cc(C)n(C)n2)nc1-c1c[nH]c2c(NC(=O)CN3CC[C@H](Oc4cc(C5=CCOCC5)ncn4)C3)cccc12 [Example 251, (S)-2-(3-((6-(3,6-dihydro-2H-pyran-4-yl)pyrimidin-4-yl)oxy)pyrrolidin-1-yl)-N-(3-(2-((1,5-dimethyl-1H-pyrazol-3-yl)amino)-5-methylpyrimidin-4-yl)-1H-indol-7-yl)acetamide]	10 to 100
Cc1cnc(Nc2cc(C)n(C)n2)nc1-c1c[nH]c2c(NC(=O)CN3CC[C@H](Oc4nccc(C5=CCC(C)(C)CC5)n4)C3)cccc12 [Example 252, (S)-N-(3-(2-((1,5-dimethyl-1H-pyrazol-3-yl)amino)-5-methylpyrimidin-4-yl)-1H-indol-7-yl)-2-(3-((4-(4,4-dimethylcyclohex-1-en-1-yl)pyrimidin-2-yl)oxy)pyrrolidin-1-yl)acetamide]	10 to 100
Cc1cnc(Nc2cc(C)n(C)n2)nc1-c1c[nH]c2c(NC(=O)CN3CC[C@H](Oc4nccc(C5=CCOCC5)n4)C3)cccc12 [Example 253, (S)-2-(3-((4-(3,6-dihydro-2H-pyran-4-yl)pyrimidin-2-yl)oxy)pyrrolidin-1-yl)-N-(3-(2-((1,5-dimethyl-1H-pyrazol-3-yl)amino)-5-methylpyrimidin-4-yl)-1H-indol-7-yl)acetamide]	10 to 100
Cc1cnc(Nc2cc(C)n(C)n2)nc1-c1c[nH]c2c(NC(=O)CN3CC[C@H](Oc4nccc(-c5ccccc5)n4)C3)cccc12 [Example 254, (S)-N-(3-(2-((1,5-dimethyl-1H-pyrazol-3-yl)amino)-5-methylpyrimidin-4-yl)-1H-indol-7-yl)-2-(3-((4-phenylpyrimidin-2-yl)oxy)pyrrolidin-1-yl)acetamide]	10 to 100
Cc1cnc(Nc2cc(C)n(C)n2)nc1-c1c[nH]c2c(NC(=O)CN3CC[C@H](Oc4ncc(-c5cccnc5)cn4)C3)cccc12 [Example 255, (S)-N-(3-(2-((1,5-dimethyl-1H-pyrazol-3-yl)amino)-5-methylpyrimidin-4-yl)-1H-indol-7-yl)-2-(3-((5-(pyridin-3-yl)pyrimidin-2-yl)oxy)pyrrolidin-1-yl)acetamide]	10 to 100
Cc1cnc(Nc2cc(C)n(C)n2)nc1-c1c[nH]c2c(NC(=O)CN3CC[C@H](Oc4ncc(-c5ccncc5)cn4)C3)cccc12 [Example 256, (S)-N-(3-(2-((1,5-dimethyl-1H-pyrazol-3-yl)amino)-5-methylpyrimidin-4-yl)-1H-indol-7-yl)-2-(3-((5-(pyridin-4-yl)pyrimidin-2-yl)oxy)pyrrolidin-1-yl)acetamide]	10 to 100
Cc1cnc(Nc2cc(C)n(C)n2)nc1-c1c[nH]c2c(NC(=O)CN3CC[C@H](Oc4cnc(-c5cccnc5)nc4)C3)cccc12 [Example 258, (S)-N-(3-(2-((1,5-dimethyl-1H-pyrazol-3-yl)amino)-5-methylpyrimidin-4-yl)-1H-indol-7-yl)-2-(3-((2-(pyridin-3-yl)pyrimidin-5-yl)oxy)pyrrolidin-1-yl)acetamide]	10 to 100
Cc1cnc(Nc2cc(C)n(C)n2)nc1-c1c[nH]c2c(NC(=O)CN3CC[C@H](Oc4cnc(-c5ccncc5)nc4)C3)cccc12 [Example 259, (S)-N-(3-(2-((1,5-dimethyl-1H-pyrazol-3-yl)amino)-5-methylpyrimidin-4-yl)-1H-indol-7-yl)-2-(3-((2-(pyridin-4-yl)pyrimidin-5-yl)oxy)pyrrolidin-1-yl)acetamide]	10 to 100
Cc1cnc(Nc2cc(C)n(C)n2)nc1-c1c[nH]c2c(N3C(=O)c4ccccc4C3=O)cccc12 [Example 260, 2-(3-(2-((1,5-dimethyl-1H-pyrazol-3-yl)amino)-5-methylpyrimidin-4-yl)-1H-indol-7-yl)isoindoline-1,3-dione]	< 10
Cc1cnc(Nc2cc(C)n(C)n2)nc1-c1c[nH]c2c(N3C(=O)c4cccc(F)c4C3=O)cccc12 [Example 261, 2-(3-(2-((1,5-dimethyl-1H-pyrazol-3-yl)amino)-5-methylpyrimidin-4-yl)-1H-indol-7-yl)-4-fluoroisoindoline-1,3-dione]	< 10
Cc1cnc(Nc2cc(C)n(C)n2)nc1-c1c[nH]c2c(N3C(=O)c4cccc(Br)c4C3=O)cccc12 [Example 262, 4-bromo-2-(3-(2-((1,5-dimethyl-1H-pyrazol-3-yl)amino)-5-methylpyrimidin-4-yl)-1H-indol-7-yl)isoindoline-1,3-dione]	< 10

Second part, the compound after the results:

IC50 [nM]	Structure (SMILES)
< 10	Cc1cnc(Nc2cc(C)n(C)n2)nc1-c1c[nH]c2c(N3C(=O)c4cccc(O)c4C3=O)cccc12 [Example 263, 2-(3-(2-((1,5-dimethyl-1H-pyrazol-3-yl)amino)-5-methylpyrimidin-4-yl)-1H-indol-7-yl)-4-hydroxyisoindoline-1,3-dione]
< 10	Cc1cnc(Nc2cc(C)n(C)n2)nc1-c1c[nH]c2c(N3C(=O)c4ccc([N+](=O)[O-])cc4C3=O)cccc12 [Example 264, 2-(3-(2-((1,5-dimethyl-1H-pyrazol-3-yl)amino)-5-methylpyrimidin-4-yl)-1H-indol-7-yl)-5-nitroisoindoline-1,3-dione]
< 10	Cc1cnc(Nc2cc(C)n(C)n2)nc1-c1c[nH]c2c(N3C(=O)c4cccnc4C3=O)cccc12 [Example 265, 6-(3-(2-((1,5-dimethyl-1H-pyrazol-3-yl)amino)-5-methylpyrimidin-4-yl)-1H-indol-7-yl)-5H-pyrrolo[3,4-b]pyridine-5,7(6H)-dione]
< 10	Cc1cnc(Nc2cc(C)n(C)n2)nc1-c1c[nH]c2c(N3Cc4c(Br)cccc4C3=O)cccc12 [Example 266, 4-bromo-2-(3-(2-((1,5-dimethyl-1H-pyrazol-3-yl)amino)-5-methylpyrimidin-4-yl)-1H-indol-7-yl)isoindolin-1-one]
10 to 100	Cc1cnc(Nc2cc(C)n(C)n2)nc1-c1c[nH]c2c(N3Cc4ccccc4C3=O)cccc12 [Example 267, 2-(3-(2-((1,5-dimethyl-1H-pyrazol-3-yl)amino)-5-methylpyrimidin-4-yl)-1H-indol-7-yl)isoindolin-1-one]
< 10	Cc1cnc(Nc2cc(C)n(C)n2)nc1-c1c[nH]c2c(N3Cc4ccc([N+](=O)[O-])cc4C3=O)cccc12 [Example 268, 2-(3-(2-((1,5-dimethyl-1H-pyrazol-3-yl)amino)-5-methylpyrimidin-4-yl)-1H-indol-7-yl)-6-nitroisoindolin-1-one]
< 10	Cc1cnc(Nc2cc(C)n(C)n2)nc1-c1c[nH]c2c(N3Cc4ccc(N)cc4C3=O)cccc12 [Example 269, 6-amino-2-(3-(2-((1,5-dimethyl-1H-pyrazol-3-yl)amino)-5-methylpyrimidin-4-yl)-1H-indol-7-yl)isoindolin-1-one]
< 10	Cc1cnc(Nc2cc(C)n(C)n2)nc1-c1c[nH]c2c(N3Cc4cc(Br)ccc4C3=O)cccc12 [Example 270, 5-bromo-2-(3-(2-((1,5-dimethyl-1H-pyrazol-3-yl)amino)-5-methylpyrimidin-4-yl)-1H-indol-7-yl)isoindolin-1-one]
< 10	Cc1cnc(Nc2cc(C)n(C)n2)nc1-c1c[nH]c2c(N3Cc4c(cccc4[N+](=O)[O-])C3=O)cccc12 [Example 271, 2-(3-(2-((1,5-dimethyl-1H-pyrazol-3-yl)amino)-5-methylpyrimidin-4-yl)-1H-indol-7-yl)-4-nitroisoindolin-1-one]
< 10	Cc1cnc(Nc2cc(C)n(C)n2)nc1-c1c[nH]c2c(N3Cc4c(N)cccc4C3=O)cccc12 [Example 272, 4-amino-2-(3-(2-((1,5-dimethyl-1H-pyrazol-3-yl)amino)-5-methylpyrimidin-4-yl)-1H-indol-7-yl)isoindolin-1-one]
< 10	Cc1cnc(Nc2cc(C)n(C)n2)nc1-c1c[nH]c2c(N3Cc4cccc(Cl)c4C3=O)cccc12 [Example 273, 7-chloro-2-(3-(2-((1,5-dimethyl-1H-pyrazol-3-yl)amino)-5-methylpyrimidin-4-yl)-1H-indol-7-yl)isoindolin-1-one]
